PubChem BioAssay AID1053163 (Broad Institute, 2014)

Test system: HepG2 + U0126, LDLR mRNA qRT-PCR, 6 h
Experiment: LDLR mRNA induction under MEK blockade, late-stage follow-up, mechanism study for Trib1 inducer project, cell-based, HepG2, U0126, RT-PCR (AID 1053163)
Conditions: active compounds read high

Row | SMILES | LDLR mRNA fold induction
1 | CN1C(=O)c2cc(NC(=O)c3ccc(C(F)(F)F)cc3)ccc2OC[C@@H]2O[C@@H](CC(=O)NC3Cc4ccccc4C3)CC[C@@H]21 | 10
2 | CN1C(=O)c2cc(NC(=O)c3ccc(C(F)(F)F)cc3)ccc2OC[C@@H]2O[C@H](CC(=O)NC3Cc4ccccc4C3)CC[C@@H]21 | 2.5
